Measurements published in paper doi:10.1101/2025.01.24.634724, “Receptor Activity-Modifying Protein 3 enhances GLP-1-mediated Insulin Secretion” (bioRxiv, 2025).
Several values for one entry are separate records, joined by “and”; a condition that tells them apart may be missing. Equal entries are not always repeated. Entries after “also recorded” stand apart in the source; their conditions may differ. Numbered stars: 1 amine (or outer) side, 2 acyl side, 3 side chain; on linkers, the order of the positions; unused ones are H or OH. Bridge positions count the residues as written; N and C are the ends. Square brackets hold non-standard residues; d marks the D form. Peptide text beside a SMILES is read from it. X1 = CC(=O)NC(C(=O)OC(C(C)C)C(N[*:1])C(=O)[*:2])C(O)C(C)C; PhLac = O=C(O)[CH](O)Cc1ccccc1; NMeT = CN[CH](C(=O)O)[CH](C)O; NMeA = CN[CH](C)C(=O)O; NMeDha = C=C(NC)C(=O)O

Experiments:
[1] = tested on: CLR-RAMP1; conditions: cited from earlier work
Excerpt: As RAMP3 expression varies between tissues, it is possible that by directly targeting this complex, tissue specific receptor activation could be facilitated. […] Agonists which have reduced affinity for the RAMP3 complex over receptor alone ...

[2] = tested on: INS-1 832/3 cells; experiment: Insulin secretion (GSIS), INS-1 832/3; format: cell-based, rat; conditions: for effect of inhibitor on GLP-1-mediated insulin secretion: 10nM GLP-1, vector or RAMP3, 30 min inhibitor pre-treatment (YM-254890 100nM, PTX 0.2ng/μL), n>4
Experimental: (§1) Insulin content was measured with the insulin ultra-sensitive detection kit (Cisbio).

[3] = tested on: LgBiT-GLP-1R with SmBiT-RAMP1 or -RAMP2; experiment: NanoBiT/BRET fluorescent ligand binding with SmBiT-RAMP1 or -RAMP2; conditions: SmBiT-RAMP1 or -RAMP2, HEK293T
[4] = tested on: Min6 B1 cells; experiment: Insulin secretion, siRNA treated Min6 B1; format: cell-based, mouse; conditions: 10nM or 1nM peptide with 10mM glucose; Min6 B1, n=4
Experimental: as §1

[5] = tested on: GCGR with RAMP2; conditions: RAMP2 co-expression ref 13; cited from earlier work
Excerpt: Signalling bias can also be influenced by the tissue, due to differential expression of signalling proteins, as well as allosteric modulators. A common protein allosteric modulator of Class B1 GPCRs are the receptor activity-modifying proteins (RAMPs). First discovered for the calcitonin-like receptor, with which they form obligate heterodimers, RAMPs influence the expression, affinity, and signalling bias of the receptor. For the calcitonin family, this leads to receptors considered functionally distinct ([10], [11]), although smaller effects are observed on other receptors e.g. the vasoactiv ...

[6] = tested on: wildtype SvEv129/SJ and isogenic Ramp3−/− male mice; experiment: IPGTT plasma insulin, WT and Ramp3−/− mice; format: in vivo, mouse; conditions: GLP-1 50nmol/kg subQ, 15 min after glucose 2g/kg i.p., n=5
Excerpt: (§2) Ramp3^−/− mice and genotyping have been previously described ([34]).

[7] = tested on: wildtype SvEv129/SJ and isogenic Ramp3−/− male mice; experiment: Insulin tolerance test (ITT), blood glucose, WT and Ramp3−/− mice; format: in vivo, mouse; conditions: GLP-1 50nmol/kg subQ 15 min before insulin 1IU/kg i.p., n=5
Excerpt: as §2

[8] = tested on: Ramp1/Ramp3 knockout mice; conditions: mouse models; dual Ramp1/Ramp3 deletion ref 43 (Leuthardt et al.); cited from earlier work
Excerpt: It is possible this difference is due to lower receptor expression, or a differential effect on bias for the rodent receptors than the human. Species differences in signalling bias have been observed for other GPCRs associated with islet cell pharmacology ([41]), so it stands to reason this might be influencing the differences o ...

[9] = tested on: Nluc-GLP-1R; experiment: (Ca2+)i mobilisation, HEK293T; format: cell-based
Experimental: HEK293T cells were transfected with 100ng Nluc-GLP-1R and 200ng of pcDNA3.1 or FLAG-RAMP3, or 100ng of pcDNA3.1 and FLAG- RAMP3 per 100μl cells and seeded in a 0.01% PLL-coated black-walled clear-bottom 96-well plate. 48 hours later media was removed, and cells were incubated in 10μM Fluor4-AM dye containing 2.5mM probenecid for 1 hour at room temperature. Cells were washed and dye replaced with Hank’s Balanced Salt Solution (Lonza) without Ca^2+ containing 0.1% BSA w/v. […] The response to vehicle was taken to be 0%, and the response to 10 μM ionomycin was used as 100%. For HEK293T cells, the maximal fluorescence was used for further analysis.

[10] = tested on: Nluc-GLP-1R; experiment: cAMP accumulation, HEK293T; format: cell-based
[11] = tested on: GLP-1R / Gαs; experiment: TRUPATH G protein dissociation, Gαs; format: cell-based; conditions: HEK293T
Experimental: (§3) G Protein dissociation assays were performed using the TRUPATH biosensor platform, as described ([28]). HEK293T cells were transfected with GLP-1R, Gα, Gγ, Gβ, and pcDNA3.1 or FLAG-RAMP3 all in equal quantities and incubated overnight. […] Cells were washed with KREBs with 0.1% BSA and incubated in buffer containing 5μM coelenterazine 400a for 5 minutes. Ligands were then added, and plates read using the Pherastar microplate reader using the BRET2 module, at 60-second intervals. The BRET2 ratio was calculated (λ515/λ400) and total dissociation over a 30-minute period used to generate dose response curves.

[12] = tested on: GLP-1R-Nluc; experiment: Receptor internalisation (loss of BRET with RIT-Venus), HEK293T; format: cell-based; conditions: for effect of RAMP3 on internalisation: RAMP3 overexpression
Experimental: Experiments were performed as previously described (([47])).

[13] = tested on: GLP-1R / Gαq(R183Q); experiment: TRUPATH G protein dissociation, Gαq(R183Q); conditions: HEK293T, R183Q mutant
Experimental: as §3

[14] = tested on: GLP-1R-Nluc; experiment: β-arrestin recruitment, HEK293T; format: cell-based; conditions: stated in discussion
[15] = relative to GLP-1 at GLP-1R alone

Molecule: NCCCC[C@H](NC(=O)[C@@H](Cc1cc(Br)c(O)c(Br)c1)NC(=O)N1CCC(N2Cc3ccccc3NC2=O)CC1)C(=O)N1CCN(c2ccncc2)CC1 [BIBN 4096 BS]
- activity at CLR-RAMP1 [1]: CLR-RAMP1 antagonist

Molecule: CC(C)(C)c1cc(C(=O)/C(C#N)=N/Nc2cccc(Cl)c2)no1 [ESI-09]
- effect of inhibitor on GLP-1-mediated insulin secretion [2]: significantly decreased GLP-1 mediated potentiation of GSIS in both vector and RAMP3 transfected cells
- effect on insulin secretion with […] glucose alone ([2]; 10μM ESI-09, no GLP-1, n=6): a reduction was also observed on the response to 16.7mM glucose alone; also recorded: a non-significant reduction was also observed in cells stimulated with high glucose alone

Molecule: Nc1ncnc2c1nc(Br)n2C1OC2COP(O)(=S)OC2C1O (stereo not shown) [Rp-8-Br-cAMPs]
- effect of inhibitor on GLP-1-mediated insulin secretion [2]: no effect on insulin secretion, irrespective of the expression of RAMP3

Molecule: C=C1C(=O)NC(C)C(=O)N(C)C(C)C(=O)NC(C(OC(=O)C(NC(C)=O)C(O)C(C)C)C(C)C)C(=O)N(C)C(C(C)OC)C(=O)OC(C)C(NC(C)=O)C(=O)OC(Cc2ccccc2)C(=O)N1C (stereo not shown) [YM-254890] (Ac-T[PhLac][NMeDha]A[NMeA][X1][NMeT](Me); ester 1-C; configuration not given here)
- effect of inhibitor on GLP-1-mediated insulin secretion [2]: the effect of YM-254890 was greater than PTX

Molecule: Ex-4-Red: Tag-Lite GLP-1 receptor red ligand, based on exendin-4 (Cisbio)
- binding of Ex-4-Red [3]: not observed for SmBiT-RAMP1 or -RAMP2

Molecule: GLP-1 (7–36amide)
- effect of RAMP3 knockdown on insulin secretion [4]: attenuated, although the effect was small
- effect of RAMP2 on Gαs coupling at GCGR [5]: decreasing the response
- plasma insulin, IPGTT ([6]; Ramp3−/− mice): This response was lost in Ramp3^−/− mice; also recorded: no longer able to elevate insulin secretion above vehicle-treated animals
- plasma insulin, IPGTT ([6]; WT mice): increased insulin secretion 15 minutes after administration of glucose
- blood glucose, ITT ([7]; Ramp3−/− mice): lost in Ramp3^−/− mice (Figure 7H)
- blood glucose, ITT ([7]; WT mice): potentiated the effects of insulin on blood glucose
- insulin secretion [2]: 2.36±0.30 fold over 2.8mM glucose and 3.94±0.33 fold over 2.8mM glucose
- effect of Ramp knockout on bodyweight lowering [8]: increase the effect of GLP-1 on bodyweight lowering in mouse models

Molecule: GLP-1 (9–36amide) [GLP-1 9–36]
- (Ca2+)i mobilisation ([9]; in the absence of RAMP3): unable to elicit any (Ca^2+)i mobilisation in the absence of RAMP3
- cAMP production ([10]; 8-minute stimulation, concentration range tested): did not elicit sufficient cAMP production over the concentration range tested

Molecule: exendin-4: incretin mimetic, approved for T2DM in 2005
- effect of RAMP3 overexpression on cAMP potency and efficacy ([10]; 8-minute stimulation): reductions in both potency and efficacy observed when RAMP3 was overexpressed
- effect of RAMP3 on Gαs dissociation [11]: no effect
- effect of RAMP3 on internalisation [12]: no subsequent effect on internalisation
- effect of RAMP3 on Gαq(Q) dissociation [13]: no effect

Molecule: glucagon: agonist of the glucagon receptor (GCGR)
- effect of RAMP2 on Gαs coupling at GCGR [5]: increasing Gαs coupling at GCGR

Molecule: glucose-dependent insulinotropic polypeptide [GIP]
- effect of RAMP3 knockdown on insulin secretion [4]: unaffected by RAMP3 knockdown
- effect of RAMP1 and RAMP3 on insulin secretion [2]: both RAMP1 and 3 increased insulin secretion

Molecule: liraglutide: a synthetic, lipidated GLP-1 mimetic, approved in the treatment of T2DM
- effect of RAMP3 on (Ca2+)i mobilisation [9]: no significant effects
- inherent signalling bias [14]: bias towards β-arrestin recruitment
- effect of RAMP2 on Gαs coupling at GCGR [5]: decreasing the response
- effect of RAMP3 overexpression on cAMP potency and efficacy ([10]; 8-minute stimulation): reductions in both potency and efficacy observed when RAMP3 was overexpressed
- effect of RAMP3 on LogRA, cAMP accumulation / second messenger [10, 15]: lesser effects on second messenger signalling
- effect of RAMP3 on Gαs dissociation [11]: no effect
- effect of RAMP3 on internalisation [12]: significant decrease in the potency of internalisation; also recorded: the response to liraglutide was reduced
- effect of RAMP3 on LogRA, desensitisation / internalisation [12, 15]: greater reduction in internalisation
- effect of RAMP3 on Gαq(Q) dissociation [13]: no effect

Molecule: oxyntomodulin: an endogenous dual agonist of both GCGR and GLP-1R
- effect of RAMP2 on Gαs coupling at GCGR [5]: increasing Gαs coupling at GCGR
- effect of RAMP3 overexpression on cAMP potency and efficacy ([10]; 8-minute stimulation): reductions in both potency and efficacy observed when RAMP3 was overexpressed
- effect of RAMP3 on internalisation [12]: no subsequent effect on internalisation
- effect of RAMP3 on Gαq(Q) dissociation [13]: no effect

Molecule: pertussis toxin [PTX]
- effect of inhibitor on GLP-1-mediated insulin secretion [2]: decreased insulin secretion significantly only when RAMP3 was overexpressed
